Results taken from US11008323B2, “Substituted tricyclic 1,4-benzodiazepinone derivatives as allosteric modulators of group II metabotropic glutamate receptors” (Domain Therapeutics, priority 2015, dated 2021).

The molecules below were run against T1, human mGluR3 (hmGluR3) (Homo sapiens, UniProt Q14832) (assay: Human mGluR3 positive allosteric modulator evaluation using Ca++ functional assay). Details: hmGluR3 transiently over-expressed in HEK-293 cells; stimulated by EC50 glutamate concentration; intracellular Ca2+ (Fluo4AM, FLIPR Tetra).
T1 construct: expressed in transfected cells; host or cells: HEK-293 cells, transient co-transfection by electroporation
Type: cell-based
Method: Compounds of the present invention were tested successively for their agonist and positive allosteric modulator activities on human mGluR3 (hmGluR3) transiently over-expressed in HEK-293 cells. Compounds exert agonist activity if they are able to activate hmGluR3 by themselves, i.e., in absence of the endogenous agonist glutamate; and they exert positive allosteric modulator activity if they increase the action of the endogenous agonist glutamate.
HEK-293 cells were maintained in Modified Eagle's Medium supplemented with 10% Foetal Calf Serum, 1% Penicillin/Streptomycin and 1% non-essential amino acids at 37° C./5% CO2.
Cells were co-transfected by electroporation with four DNA plasmids encoding hmGluR3, a chimeric G protein allowing redirection of the activation signal toward intracellular calcium pathway, and two glutamate transporters so as to decrease extracellular glutamate levels and avoid receptor desensitization (Brabet I et al., Neuropharmacology 37(8), 1043-51, 1998). After transfection, cells were seeded in 75 cm^2 culture flasks, and cultured for 24 h.
Receptor activity was detected by changes in intracellular calcium measured using the fluorescent Ca^2+ sensitive dye, Fluo4AM (Molecular Probes).
The day of the assay, medium was aspirated and replaced during 3 hrs by freshly prepared buffer B (HBSS 1×, Hepes 20 mM, MgSO4-7H2O 1 mM, Na2CO3 3.3 mM, CaCl2-2H2O 1.3 mM, 0.5% BSA, Probenecid 2.5 mM). Then, cells were loaded at 37° C./5% CO2 for 1.5 hrs with buffer B containing 1 μM Fluo4AM, 0.1 mg/mL Pluronic Acid, 7 μg/mL Glutamate Pyruvate Transaminase and 2 mM sodium pyruvate. Afterwards cells were washed with buffer B. Cells were then detached from the 75 cm^2 culture flasks with Accutase® (5 min incubation at 37° C.), centrifuged (5 min at 840 rpm), resuspended in buffer B and finally seeded at a density of 30,000 cells/well in black-walled clear-bottom 384-well plates. Addition of compounds on cells and intracellular Ca^2+ measurements (excitation 485 nm, emission 525 nm) were performed by the fluorescence microplate reader FLIPR Tetra (Molecular Devices).
Agonist and positive allosteric modulator activities of compounds were consecutively evaluated on the same cells plate. Agonist activity was first tested during 10 min with the addition of compound alone on the cells. Then, the cells were stimulated by an EC50 glutamate concentration and fluorescence was recorded for additional 3 min. EC50 glutamate concentration is the concentration giving 50% of the maximal glutamate response. Agonist and/or positive allosteric modulator activity(ies) were evaluated in comparison to basal signal or signal evoked by EC50 glutamate concentration alone, respectively.
For potency determination, a dose-response test was performed using 20 concentrations of each compound of the invention. Dose-response curves were fitted using the sigmoïdal dose-response (variable slope) analysis in XLfit Scientific Curve Fitting for Excel (IDBS). EC50 of agonist/EC50 of positive allosteric modulator activity(ies) were calculated. Dose-response experiments were all performed in duplicate, two times independently.

T1 sequence (Q14832 23-879): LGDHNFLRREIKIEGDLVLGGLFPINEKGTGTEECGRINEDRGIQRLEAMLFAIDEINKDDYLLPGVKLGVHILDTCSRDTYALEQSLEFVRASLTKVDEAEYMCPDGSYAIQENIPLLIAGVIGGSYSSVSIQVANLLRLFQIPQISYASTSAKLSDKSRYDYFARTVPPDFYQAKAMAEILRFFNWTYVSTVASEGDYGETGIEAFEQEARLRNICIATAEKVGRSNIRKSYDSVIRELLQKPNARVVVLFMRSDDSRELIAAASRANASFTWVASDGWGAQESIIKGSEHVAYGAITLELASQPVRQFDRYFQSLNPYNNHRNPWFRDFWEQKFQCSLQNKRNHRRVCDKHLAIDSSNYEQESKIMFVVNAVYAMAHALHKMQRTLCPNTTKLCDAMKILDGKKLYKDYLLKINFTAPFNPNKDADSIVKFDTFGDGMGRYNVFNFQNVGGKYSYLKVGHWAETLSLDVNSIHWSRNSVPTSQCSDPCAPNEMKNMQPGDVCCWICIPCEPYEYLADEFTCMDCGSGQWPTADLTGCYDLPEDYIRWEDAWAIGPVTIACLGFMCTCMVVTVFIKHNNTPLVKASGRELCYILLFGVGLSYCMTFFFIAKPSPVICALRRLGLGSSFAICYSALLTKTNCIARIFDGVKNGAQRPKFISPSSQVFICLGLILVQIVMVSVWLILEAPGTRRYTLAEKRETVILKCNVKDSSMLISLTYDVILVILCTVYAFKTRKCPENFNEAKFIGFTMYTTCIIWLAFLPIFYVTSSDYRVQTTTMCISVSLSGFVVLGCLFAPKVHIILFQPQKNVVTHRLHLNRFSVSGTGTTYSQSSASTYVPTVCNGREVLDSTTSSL

Row | SMILES | EC50 [µM]
1 | CN1C(=O)c2cccn2-c2cc(Br)ccc2C12CC2 [Example 1, 9-Bromo-5-methyl-spiro[benzo[f]pyrrolo[1,2-a][1,4]diazepine-6,1′-cyclopropan]-4(5H)-one] | 0.1 to 1
2 | CN1C(=O)c2cc(Cl)cn2-c2cc(Br)ccc2C12CC2 [Example 5, 9-Bromo-2-chloro-5-methyl-spiro[benzo[f]pyrrolo[1,2-a][1,4]diazepine-6,1′-cyclopropan]-4(5H)-one] | > 1
3 | CN1C(=O)c2c(Cl)ccn2-c2cc(Br)ccc2C12CC2 [Example 6, 9-Bromo-3-chloro-5-methyl-spiro[benzo[f]pyrrolo[1,2-a][1,4]diazepine-6,1′-cyclopropan]-4(5H)-one] | > 1
4 | CN1C(=O)c2cccn2-c2cc(Br)cc(F)c2C12CC2 [Example 7, 9-Bromo-7-fluoro-5-methyl-spiro[benzo[f]pyrrolo[1,2-a][1,4]diazepine-6,1′-cyclopropan]-4(5H)-one] | > 1
5 | CN1C(=O)c2cccn2-c2cc(Br)c(F)cc2C12CC2 [Example 9, 9-Bromo-8-fluoro-5-methyl-spiro[benzo[f]pyrrolo[1,2-a][1,4]diazepine-6,1′-cyclopropan]-4(5H)-one] | > 1
6 | CN1C(=O)c2cc(-c3ccccc3)nn2-c2cc(Br)ccc2C12CC2 [Example 11, 9-Bromo-5-methyl-2-phenyl-spiro[benzo[f]pyrazolo[1,5-a][1,4]diazepine-6,1′-cyclopropan]-4(5H)-one] | > 1
7 | CN1C(=O)c2cccn2-c2ccc(Br)cc2C12CC2 [Example 13, 8-Bromo-5-methyl-spiro[benzo[f]pyrrolo[1,2-a][1,4]diazepine-6,1′-cyclopropan]-4(5H)-one] | > 1
8 | CN1C(=O)c2cc(-c3ccccc3)cn2-c2ccc(Br)cc2C12CC2 [Example 16, 8-Bromo-5-methyl-2-phenyl-spiro[benzo[f]pyrrolo[1,2-a][1,4]diazepine-6,1′-cyclopropan]-4(5H)-one] | > 1
9 | Cc1ncccc1-c1ccc2c(c1)-n1cc(Br)cc1C(=O)N(C)C21CC1 [Example 17, 2-Bromo-5-methyl-9-(2-methyl-pyridin-3-yl)-spiro[benzo[f]pyrrolo[1,2-a][1,4]diazepine-6,1′-cyclopropan]-4(5H)-one] | 0.1 to 1
10 | Cc1ccc(-c2ccc3c(c2)-n2cc(Br)cc2C(=O)N(C)C32CC2)cn1 [Example 18, 2-Bromo-5-methyl-9-(6-methyl-pyridin-3-yl)-spiro[benzo[f]pyrrolo[1,2-a][1,4]diazepine-6,1′-cyclopropan]-4(5H)-one] | < 0.1
11 | CCc1ncccc1-c1ccc2c(c1)-n1cc(Br)cc1C(=O)N(C)C21CC1 [Example 19, 2-Bromo-5-methyl-9-(2-ethyl-pyridin-3-yl)-spiro[benzo[f]pyrrolo[1,2-a][1,4]diazepine-6,1′-cyclopropan]-4(5H)-one] | 0.1 to 1
12 | CN1C(=O)c2cccn2-c2cc(-c3ccncc3)ccc2C12CC2 [Example 22, 5-Methyl-9-(pyridin-4-yl)-spiro[benzo[f]pyrrolo[1,2-a][1,4]diazepine-6,1′-cyclopropan]-4(5H)-one] | 0.1 to 1
13 | CN1C(=O)c2cccn2-c2cc(-c3cccnc3)ccc2C12CC2 [Example 23, 5-Methyl-9-(pyridin-3-yl)-spiro[benzo[f]pyrrolo[1,2-a][1,4]diazepine-6,1′-cyclopropan]-4(5H)-one] | 0.1 to 1
14 | CCc1ncccc1-c1ccc2c(c1)-n1cccc1C(=O)N(C)C21CC1 [Example 24, 5-Methyl-9-(2-ethylpyridin-3-yl)-spiro[benzo[f]pyrrolo[1,2-a][1,4]diazepine-6,1′-cyclopropan]-4(5H)-one] | 0.1 to 1
15 | Cc1ccc(-c2ccc3c(c2)-n2cccc2C(=O)N(C)C32CC2)cn1 [Example 25, 5-Methyl-9-(6-methylpyridin-3-yl)-spiro[benzo[f]pyrrolo[1,2-a][1,4]diazepine-6,1′-cyclopropan]-4(5H)-one] | < 0.1
16 | Cc1cc(-c2ccc3c(c2)-n2cccc2C(=O)N(C)C32CC2)ccn1 [Example 26, 5-Methyl-9-(2-methylpyridin-4-yl)-spiro[benzo[f]pyrrolo[1,2-a][1,4]diazepine-6,1′-cyclopropan]-4(5H)-one] | 0.1 to 1
17 | Cc1cnccc1-c1ccc2c(c1)-n1cccc1C(=O)N(C)C21CC1 [Example 38, 5-Methyl-9-(3-methylpyridin-4-yl)-spiro[benzo[f]pyrrolo[1,2-a][1,4]diazepine-6,1′-cyclopropan]-4(5H)-one] | 0.1 to 1
18 | CN1C(=O)c2cccn2-c2cc(-c3cnc(N)c(C(F)(F)F)c3)ccc2C12CC2 [Example 40, 5-Methyl-9-(6-amino-5-trifluoromethyl-pyridin-3-yl)-spiro[benzo[f]pyrrolo[1,2-a][1,4]diazepine-6,1′-cyclopropan]-4(5H)-one] | > 1
19 | CN1C(=O)c2cccn2-c2cc(-c3ccc4nccn4c3)ccc2C12CC2 [Example 41, 5-Methyl-9-(imidazo[1,2-a]pyridin-6-yl)-spiro[benzo[f]pyrrolo[1,2-a][1,4]diazepine-6,1′-cyclopropan]-4(5H)-one] | < 0.1
20 | CN1C(=O)c2cccn2-c2cc(-c3ccc(N4CCOCC4)nc3)ccc2C12CC2 [Example 42, 5-Methyl-9-(6-morpholin-4-yl-pyridin-3-yl)-spiro[benzo[f]pyrrolo[1,2-a][1,4]diazepine-6,1′-cyclopropan]-4(5H)-one] | 0.1 to 1
21 | CN1C(=O)c2cccn2-c2cc(-c3ccc(N4CCCCC4)nc3)ccc2C12CC2 [Example 43, 5-Methyl-9-(3,4,5,6-tetrahydro-2H-[1,2′]bipyridinyl-5′-yl)-spiro[benzo[f]pyrrolo[1,2-a][1,4]diazepine-6,1′-cyclopropan]-4(5H)-one] | > 1
22 | CN1C(=O)c2cccn2-c2cc(C3=CCNCC3)ccc2C12CC2 [Example 46, 5-Methyl-9-(1,2,3,6-tetrahydro-pyridin-4-yl)-spiro[benzo[f]pyrrolo[1,2-a][1,4]diazepine-6,1′-cyclopropan]-4(5H)-one] | > 1
23 | CN1C(=O)c2cccn2-c2cc(C3=CCN(c4ccncn4)CC3)ccc2C12CC2 [Example 47, 5-Methyl-9-(1-pyrimidin-4-yl-1,2,3,6-tetrahydro-pyridin-4-yl)-spiro[benzo[f]pyrrolo[1,2-a][1,4]diazepine-6,1′-cyclopropan]-4(5H)-one] | 0.1 to 1
24 | CN1C(=O)c2cccn2-c2cc(-c3ccc(Cl)nc3)ccc2C12CC2 [Example 54, 5-Methyl-9-(6-chloropyridin-3-yl)-spiro[benzo[f]pyrrolo[1,2-a][1,4]diazepine-6,1′-cyclopropan]-4(5H)-one] | < 0.1
25 | Cc1ccc(-c2ccc3c(c2)-n2cccc2C(=O)N(C)C32CC2)c(C)n1 [Example 56, 5-Methyl-9-(2,6-dimethylpyridin-3-yl)-spiro[benzo[f]pyrrolo[1,2-a][1,4]diazepine-6,1′-cyclopropan]-4(5H)-one] | < 0.1
26 | CN1C(=O)c2cccn2-c2cc(-c3cc(F)ccn3)ccc2C12CC2 [Example 57, 5-Methyl-9-(4-fluoropyridin-2-yl)-spiro[benzo[f]pyrrolo[1,2-a][1,4]diazepine-6,1′-cyclopropan]-4(5H)-one] | 0.1 to 1
27 | Cc1nccnc1-c1ccc2c(c1)-n1cccc1C(=O)N(C)C21CC1 [Example 58, 5-Methyl-9-(3-methyl-pyrazin-2-yl)-5,6-spiro[benzo[f]pyrrolo[1,2-a][1,4]diazepine-6,1′-cyclopropan]-4(5H)-one] | > 1
28 | Cc1ncncc1-c1ccc2c(c1)-n1cccc1C(=O)N(C)C21CC1 [Example 59, 5-Methyl-9-(4-methyl-pyrimidin-5-yl)-spiro[benzo[f]pyrrolo[1,2-a][1,4]diazepine-6,1′-cyclopropan]-4(5H)-one] | > 1
29 | CCCc1ncccc1-c1ccc2c(c1)-n1cccc1C(=O)N(C)C21CC1 [Example 61, 5-Methyl-9-(2-propylpyridin-3-yl)-spiro[benzo[f]pyrrolo[1,2-a][1,4]diazepine-6,1′-cyclopropan]-4(5H)-one] | < 0.1
30 | CN1C(=O)c2cccn2-c2cc(-c3cccnc3C3CC3)ccc2C12CC2 [Example 62, 5-Methyl-9-(2-cyclopropylpyridin-3-yl)-spiro[benzo[f]pyrrolo[1,2-a][1,4]diazepine-6,1′-cyclopropan]-4(5H)-one] | 0.1 to 1
